Measured values: patent publication US20230212122A1, “MITOCHONDRIAL TARGETING COMPOUNDS FOR THE TREATMENT OF ASSOCIATED DISEASES” (The Regents of the University of Michigan, priority 2020, published 2023)

Key:
[1] = tested on: MIA PaCa-2 cells; assay: MTT assay, cancer cell growth inhibition (MIA PaCa-2); assay type: cell-based; settings: Homo sapiens, MIA PaCa-2, 168 h, 7 days of treatment, read-out: MiaPaCa IC50
Protocol: Measurement of cancer cell growth inhibition of the compounds of invention Cytotoxicity of the compounds was assessed by MTT assay. In brief, MIA PaCa-2 cells or BxPc3 cells were seeded in 96-well microtitre plates at density of 200 cells/well. After overnight attachment, cells were treated with compounds at indicated concentration. After 7 days of treatment, MTT solution (3 mg/ml, 20 μl) was added to each well and cells were incubated for 3 h at 37° C. After incubation, media from each well was removed and the dark blue formazan crystals formed by live cells were dissolved in DMSO ([…] per well). The absorbance intensity was measured at 570 nm on a microplate reader (Molecular Devices, Sunnyvale, Calif., USA). The half maximal inhibitory concentration (IC50) value were calculated using 4 or 6 dots curve plotted with Cumulative Gaussian equation or Log(inhibitor) vs. response equation in GraphPad Prism.

[2] = tested on: UM16 cell line; assay: Proteomics, protein fold change; assay type: cell-based; settings: for Fold change: 5 μM
From the text: Several proteins participating in energy metabolism were dramatically changed.

For CCOC(=O)[C@@H]1CCCN(S(=O)(=O)c2ccc(S(=O)(=O)N(CC)CC)cc2)C1 [DX2-201, ethyl (R)-1-((4-(N,N-diethylsulfamoyl)phenyl)sulfonyl)piperidine-3-carboxylate], the IC50 [1] was 370 ± 60 nM, the “Serine protease 23, nuclear receptor family 2 group F member 6, protein NDRG1 (proteomic results)” value [2] was “upregulated” and the “Glycerol kinase fold change” value ([2]; 24 hours, top upregulated) was 3 fold. For the same molecule, the “dihydrolilpoyl dehudrogenase fold change” value ([2]; downregulated, TCA cycle enzyme) was 0.684, the Fold change ([2]; protein ABTB2, 24 hours) was 0.778 and the Fold change ([2]; protein ALAS1, 24 hours) was 1.393. It also gave a Fold change ([2]; protein ANKH, 24 hours) of 0.777, a Fold change ([2]; protein ANKRD54, 24 hours) of 0.799 and a Fold change ([2]; protein AP1S2, 24 hours) of 0.792. For the same molecule, the Fold change ([2]; protein AP2S1, 24 hours) was 0.781, the Fold change ([2]; protein APBB1IP, 24 hours) was 1.458 and the Fold change ([2]; protein BTBD10, 24 hours) was 1.651. It also gave a Fold change ([2]; protein CCDC88C, 24 hours) of 0.785, a Fold change ([2]; protein CCNT2, 24 hours) of 1.65 and a Fold change ([2]; protein CDC42BPA, 24 hours) of 1.514. It also gave a Fold change ([2]; protein CDCA5, 24 hours) of 0.761, a Fold change ([2]; protein CMTM4, 24 hours) of 1.678 and a Fold change ([2]; protein CYP51A1, 24 hours) of 1.636. The Fold change ([2]; protein DHTKD1, 24 hours) was 1.384, the Fold change ([2]; protein DLD, 24 hours) was 0.684 and the Fold change ([2]; protein DOLPP1, 24 hours) was 0.731. It also gave a Fold change ([2]; protein DOPEY2, 24 hours) of 0.797, a Fold change ([2]; protein DTNBP1, 24 hours) of 0.794 and a Fold change ([2]; protein FAH, 24 hours) of 0.785. For the same molecule, the Fold change ([2]; protein FAU, 24 hours) was 0.742, the Fold change ([2]; protein Hist1h1d, 24 hours) was 0.703 and the Fold change ([2]; protein KIAA0355, 24 hours) was 1.48. For the same molecule, the Fold change ([2]; protein MED27, 24 hours) was 0.79, the Fold change ([2]; protein MROH1, 24 hours) was 1.386 and the Fold change ([2]; protein NAA35, 24 hours) was 1.377. It also gave a Fold change ([2]; protein NDRG1, 24 hours) of 1.55, a Fold change ([2]; protein NOL8, 24 hours) of 0.771 and a Fold change ([2]; protein NR2F6, 24 hours) of 1.842. It also gave a Fold change ([2]; protein NRGN, 24 hours) of 0.795, a Fold change ([2]; protein OGFOD2, 24 hours) of 0.754 and a Fold change ([2]; protein OSTC, 24 hours) of 1.418. It also gave a Fold change ([2]; protein PDCL, 24 hours) of 0.752, a Fold change ([2]; protein PLP2, 24 hours) of 0.763 and a Fold change ([2]; protein PRSS23, 24 hours) of 1.844. The Fold change ([2]; protein RCCD1, 24 hours) was 1.443, the Fold change ([2]; protein RDH13, 24 hours) was 1.429 and the Fold change ([2]; protein RRM2B, 24 hours) was 1.395. For the same molecule, the Fold change ([2]; protein RUSC1, 24 hours) was 0.771, the Fold change ([2]; protein SCAMP2, 24 hours) was 0.729 and the Fold change ([2]; protein SLC25A15, 24 hours) was 0.796. It also gave a Fold change ([2]; protein TADA3, 24 hours) of 1.45, a Fold change ([2]; protein TCEAL1, 24 hours) of 1.382 and a Fold change ([2]; protein TMEM55B, 24 hours) of 1.664. For the same molecule, the Fold change ([2]; protein UQCC3, 24 hours) was 1.635, the Fold change ([2]; protein ZBTB21, 24 hours) was 0.709 and the Fold change ([2]; protein gk, 24 hours) was 3.009. It also gave a Fold change ([2]; protein krt17, 24 hours) of 1.386, a Fold change ([2]; protein pop7, 24 hours) of 0.736 and a Fold change ([2]; protein scaf8, 24 hours) of 1.508.
